Experiment [1] deals with diet-induced obese mouse. Nature of the experiment: Fasting blood glucose, insulin and HOMAIR in the diet-induced obese mouse. Type of experiment: in vivo. As to conditions: 6 week treatment. The procedure: The interactive effects of icariin, a flavanol with specific PDE5 inhibitory properties, on glycemia and insulin sensitivity were assessed in the diet-induced obese mouse, which can be used as a murine model of type 2 diabetes. Male C57/BL6 mice were placed on standard low-fat chow (control; 10% energy from fat) or high fat (60% energy from fat, Research Diets # D12492, Research Diets, Inc, New Brunswick, N.J.) at six weeks of age to induce insulin resistance. […] The animals were then randomized to the following diets for an additional six weeks, with 10 animals per group: Low fat diet (LFD) control; High fat diet (HFD) control; HFD+leucine (24 g/kg diet, a two-fold increase over control levels)1 HFD+leucine (24 g/kg diet)+icariin (25 mg/kg diet). […] Mice were fasted overnight (˜16 hours) prior to measurement of fasting blood glucose, insulin and glucose tolerance. Glucose tolerance was determined following measurement of fasting glucose via intraperitoneal administration of glucose (1.2 g/kg body weight) followed by blood glucose measurement at 15, 30, 60, 90 and 120 minutes. Post-prandial glucose was measured within one hour of cessation of eating. Insulin tolerance was measured via an insulin tolerance test (ITT). Food was removed 4-6 hours prior to ITT, and baseline blood glucose measured. The mice were then injected intraperitoneally with insulin (1.2 U/kg body weight) and blood glucose was measured 15, 30, 60, 90 and 120 minutes following insulin injection. The homeostasis model assessment of insulin resistance (HOMAIR) was used as a screening index of changes in insulin sensitivity. HOMAIR is calculated via standard formula from fasting plasma insulin and glucose as follows: HOMAIR=[Insulin (uU/mL)×glucose (mM)]/22.5. The plasma glucose and insulin concentrations were measured using the Glucose Assay Kit from Biovision (Milpitas, Calif.) and the Insulin kit from Millipore (Billerica, Mass.), respectively. CRP levels in plasma were determined by ELISA (CRP: Life Diagnostics, West Chester, Pa.).

For experiment [2], the system named is C2C12 myotubes. Nature of the experiment: Mitochondrial biogenesis measured as mitochondrial mass in C2C12 myotubes. It counts as cell-based. As to conditions: C2C12 cells treated with leucine alone; p<0.05. The procedure: The output of the pathways can be measured using one or more methods, disclosed herein and/or known in the art. […] Mitochondrial biogenesis can be measured using a mitochondrial probe by using fluorescence. AMPK activity can be determined by measuring AMPK phosphorylation via an ELISA assay or by Western blot. Sirt1 activity can be determined by measuring deacetylation of a substrate, which can be detected using a fluorophore. […] Treatment with 0.5 mM leucine corresponds to a circulating level of the same molarity achieved by administering about 1,125 mg of dietary leucine to a human subject. Treatment with 0.25 mM leucine corresponds to a circulating level of the same molarity achieved by administering about 300 mg of dietary leucine to a human subject.

For the substance leucine, in experiment [1], the “reduction in HOMAIR vs. untreated HFD mice” value is listed as ~30%, the “reduction in circulating insulin during fasting vs. untreated HFD mice” value was ~25% and the “reduction in fasting glucose vs. untreated HFD mice” value is reported as ~20%. Besides, the mitochondrial biomass in experiment [2] is 22.05+/−0.4 AFU/μg protein.

The values above are taken from patent US10646489B2, “Compositions and methods for increasing energy metabolism” (NuSirt Sciences, Inc., priority 2012, dated 2020).
